Test results from patent publication EP2649091B1, “IMMUNE RESTRICTED PEPTIDES WITH INCREASED EFFICACY” (Stichting Het Nederlands Kanker Instituut, priority 2010, dated 2012).

Assays:
HLA-A0201 = HLA-A0201 (Homo sapiens, UniProt P04439, D140Y/D185E/D98H/E176V/E277Q/G131W/G231S/I119V/I121R/I166T/I218V/L300P/L318F/N151K/N90K/P208A/P217A/Q86G/Q94H/R138H/R169H/T345S); format: binding
[1] = test system: SVYDFFVWL (TRP-2 180-188) reactive T cells; assay: T cell activation time course assay, IFNγ production (FACS), TRP-2 epitope; details: for % CD8+ T cells producing IFN-γ peptide concentrations in picomolar 24H 0.5 / Geometric mean IFN-γ in arbitrary fluorescence units peptide concentrations in picomolar 24H 0.5 / % CD8+ T cells producing IFN-γ peptide concentrations in picomolar 48H 0.5 / Geometric mean IFN-γ in arbitrary fluorescence units peptide concentrations in picomolar 48H 0.5: peptide 0.5 pM; for % CD8+ T cells producing IFN-γ peptide concentrations in picomolar 24H 50 / Geometric mean IFN-γ in arbitrary fluorescence units peptide concentrations in picomolar 24H 50 / % CD8+ T cells producing IFN-γ peptide concentrations in picomolar 48H 50 / Geometric mean IFN-γ in arbitrary fluorescence units peptide concentrations in picomolar 48H 50: peptide 50 pM; for % CD8+ T cells producing IFN-γ peptide concentrations in picomolar 24H 5·10^3 / Geometric mean IFN-γ in arbitrary fluorescence units peptide concentrations in picomolar 24H 5·10^3 / % CD8+ T cells producing IFN-γ peptide concentrations in picomolar 48H 5·10^3 / Geometric mean IFN-γ in arbitrary fluorescence units peptide concentrations in picomolar 48H 5·10^3: peptide 5·10^3 pM

Substance | % inhibition at T=4H and T=24H FP 4h (HLA-A0201) | % inhibition at T=4H and T=24H FP 24h (HLA-A0201) | % CD8+ T cells producing IFN-γ peptide concentrations in picomolar 24H 0.5 [1] | Geometric mean IFN-γ in arbitrary fluorescence units peptide concentrations in picomolar 24H 0.5 [1] | % CD8+ T cells producing IFN-γ peptide concentrations in picomolar 24H 50 [1] | Geometric mean IFN-γ in arbitrary fluorescence units peptide concentrations in picomolar 24H 50 [1] | % CD8+ T cells producing IFN-γ peptide concentrations in picomolar 24H 5·10^3 [1] | Geometric mean IFN-γ in arbitrary fluorescence units peptide concentrations in picomolar 24H 5·10^3 [1] | % CD8+ T cells producing IFN-γ peptide concentrations in picomolar 48H 0.5 [1] | Geometric mean IFN-γ in arbitrary fluorescence units peptide concentrations in picomolar 48H 0.5 [1] | % CD8+ T cells producing IFN-γ peptide concentrations in picomolar 48H 50 [1] | % CD8+ T cells producing IFN-γ peptide concentrations in picomolar 48H 5·10^3 [1] | Geometric mean IFN-γ in arbitrary fluorescence units peptide concentrations in picomolar 48H 5·10^3 [1] | Geometric mean IFN-γ in arbitrary fluorescence units peptide concentrations in picomolar 48H 50 [1]
[PHG][NVA]YDFFVWL | 79% | 76% | 0% | 76 arbitrary fluorescence units | 15% | 94 arbitrary fluorescence units | 29% | 263 arbitrary fluorescence units | 0% | 85 arbitrary fluorescence units | 2% | 30% | 188 arbitrary fluorescence units | –
[am-phg][NVA]YDFFVW[PRG] | 88% | 80% | 0% | 64 arbitrary fluorescence units | 7% | 77 arbitrary fluorescence units | 26% | 181 arbitrary fluorescence units | 0% | 71 arbitrary fluorescence units | 1% | 23% | 132 arbitrary fluorescence units | 57 arbitrary fluorescence units
[CSME][2-AOC]YDFFVW[PRG] | 98% | 89% | 0% | 67 arbitrary fluorescence units | 1% | 73 arbitrary fluorescence units | 7% | 84 arbitrary fluorescence units | 0% | 67 arbitrary fluorescence units | 0% | 0% | 72 arbitrary fluorescence units | 6 arbitrary fluorescence units
[PHG][2-AOC]YDFFVWL | 90% | 75% | 0% | 85 arbitrary fluorescence units | 14% | 95 arbitrary fluorescence units | 30% | 224 arbitrary fluorescence units | 1% | 75 arbitrary fluorescence units | 3% | 33% | 184 arbitrary fluorescence units | –
[am-phg][NVA]YDFFVWL | 79% | 77% | 1% | 59 arbitrary fluorescence units | 26% | – | 34% | 326 arbitrary fluorescence units | 1% | 78 arbitrary fluorescence units | 18% | 40% | 255 arbitrary fluorescence units | –
[CSME][CpALA]YDFFVW[PRG] | 85% | 83% | 1% | 69 arbitrary fluorescence units | 5% | 73 arbitrary fluorescence units | 27% | 147 arbitrary fluorescence units | 0% | 58 arbitrary fluorescence units | 1% | 14% | 105 arbitrary fluorescence units | 68 arbitrary fluorescence units
[PHG][NVA]YDFFVW[PRG] | 83% | 78% | 1% | 89 arbitrary fluorescence units | 6% | 73 arbitrary fluorescence units | 33% | 183 arbitrary fluorescence units | 0% | 66 arbitrary fluorescence units | 1% | 21% | 139 arbitrary fluorescence units | 61 arbitrary fluorescence units
[CSME][NVA]YDFFVW[PRG] | 78% | 78% | 0% | 67 arbitrary fluorescence units | 6% | 80 arbitrary fluorescence units | 26% | 175 arbitrary fluorescence units | 1% | 93 arbitrary fluorescence units | 1% | 26% | 130 arbitrary fluorescence units | 67 arbitrary fluorescence units
[PHG][NVA]YDFFVW[ALG] | 76% | 73% | 0% | 84 arbitrary fluorescence units | 6% | 71 arbitrary fluorescence units | 35% | 185 arbitrary fluorescence units | 1% | 64 arbitrary fluorescence units | 1% | 22% | 142 arbitrary fluorescence units | 64 arbitrary fluorescence units
